Data on one compound can be found in paper PMC7011792 (Journal of Enzyme Inhibition and Medicinal Chemistry, 2017).

The target in experiment [1] is T1, BuChE (EC 3.1.1.8) from human (Homo sapiens, UniProt P06276).
T1 construct: purchased Sigma-Aldrich B4186
Nature of the experiment: Human BuChE inhibition, Ellman's method. To be noted: huBuChE; mean ± SEM. In kind it is biochemical. As for the experimental part:
(§1) AChE (EC 3.1.1.7, Type VI-S, from electric eel, C3389; from human, C1682) and BuChE (EC 3.1.1.8, from equine serum, C0663; from human, B4186), 5,5'-dithiobis (2-nitrobenzoic acid) (DTNB, D218200), acetylthiocholine iodide (ATC, A5751), and butyrylthiocholine iodide (BTC, B3253) were obtained from Sigma-Aldrich (St. Louis, MO).
(§2) The inhibitory effects of the synthesised compounds in this paper were evaluated according to our previously reported method. Briefly, AChE/BuChE stock solution was diluted to give 2.5 units/mL (for eeAChE, eqBuChE, and huAChE) or 0.5 units/mL for huBuChE. ATC/BTC iodide solution (0.075 M) was prepared in deionised water. DTNB solution (0.01 M) was prepared using water containing 0.15% (w/v) sodium bicarbonate. The assay buffer was prepared as follows: potassium dihydrogen phosphate (1.36 g, 10 mmol) was dissolved in 100 ml of water. The pH of the solution was then adjusted to 8.0 ± 0.1 with KOH. Stock solutions of the test samples were dissolved in ethanol to give a final concentration of 10^−4 M when diluted to the final volume of 3.32 ml. For each compound, a dilution series of at least five different concentrations (normally 10^−5–10^−9 M) were prepared.
For measurement, a cuvette containing 3.0 ml of phosphate buffer, 100 µL of AChE or BuChE, 100 µL of DTNB, and 100 µL of the test compound solution were added in sequence. The reaction was initiated after adding 20 µL of ATC or BTC, and the solution was mixed immediately. Two minutes (eeAChE and eqBuChE) or 15 min (huAChE and huBuChE) after ATC or BTC addition, the absorption was measured at 25 °C (eeAChE and eqBuChE) or 37 °C (huAChE and huBuChE) at 412 nm, using a Shimadzu 160 spectrophotometer. For the reference value, 100 µL of water replaced the test compound solution. For the blank control, additionally 100 µL of water replaced the enzyme solution. The measurement for each concentration was assayed in triplicate. GraphPad Prism 5 was used for data processing. […] The IC50 values were calculated according to the curve, and the data were shown in mean ± SEM.

The next experiment concerns the target T2, huBuChE (Homo sapiens, UniProt P06276).
T2 construct: purchased Sigma-Aldrich B4186
Nature of the experiment: Kinetic study of huBuChE inhibition (Lineweaver-Burk, Michaelis-Menten). The class given is biochemical. To be noted: Lineweaver–Burk plots, 1, 2, 4, 10 nM. The protocol: Kinetic studies were performed according to methods reported previously. The concentrations of the substrate ATC or BTC were prepared as 25, 50, 90, 150, 226, and 452 µM. Different concentrations of compound 19 with 0, 1, 2, 4, 10 nM, were also prepared by stock solution. For measurement, the enzymatic reaction was extended to 20 min (huAChE and huBuChE) before the determination of the absorption. Graph Pad Prism 5 was applied for data processing. Vmax and Km values of the Michaelis–Menten kinetics were determined by nonlinear regression from substrate-velocity curves, while Lineweaver–Burk plots were fitted by using linear regression method.

Experiment [2] deals with T3, AChE (EC 3.1.1.7) from human (Homo sapiens, UniProt P22303).
T3 construct: purchased Sigma-Aldrich C1682
As to the kind of experiment: Human AChE inhibition, Ellman's method. The class given is biochemical. As for the experimental part: as §1, §2
For measurement, a cuvette containing 3.0 ml of phosphate buffer, 100 µL of AChE or BuChE, 100 µL of DTNB, and 100 µL of the test compound solution were added in sequence. The reaction was initiated after adding 20 µL of ATC or BTC, and the solution was mixed immediately. Two minutes (eeAChE and eqBuChE) or 15 min (huAChE and huBuChE) after ATC or BTC addition, the absorption was measured at 25 °C (eeAChE and eqBuChE) or 37 °C (huAChE and huBuChE) at 412 nm, using a Shimadzu 160 spectrophotometer. For the reference value, 100 µL of water replaced the test compound solution. For the blank control, additionally 100 µL of water replaced the enzyme solution. The measurement for each concentration was assayed in triplicate. GraphPad Prism 5 was used for data processing. The inhibition curve was fitted by plotting percentage enzyme activity (100% for the reference) versus logarithm of test compound concentration. The IC50 values were calculated according to the curve, and the data were shown in mean ± SEM.

Experiment [3] concerns the target T4, AChE (EC 3.1.1.7) from electric eel (Electrophorus electricus, UniProt O42275).
T4 construct: purchased Sigma-Aldrich C3389
Nature of the experiment: biochemical.

Each structure is given as a SMILES string.

T4 sequence (O42275 24-633): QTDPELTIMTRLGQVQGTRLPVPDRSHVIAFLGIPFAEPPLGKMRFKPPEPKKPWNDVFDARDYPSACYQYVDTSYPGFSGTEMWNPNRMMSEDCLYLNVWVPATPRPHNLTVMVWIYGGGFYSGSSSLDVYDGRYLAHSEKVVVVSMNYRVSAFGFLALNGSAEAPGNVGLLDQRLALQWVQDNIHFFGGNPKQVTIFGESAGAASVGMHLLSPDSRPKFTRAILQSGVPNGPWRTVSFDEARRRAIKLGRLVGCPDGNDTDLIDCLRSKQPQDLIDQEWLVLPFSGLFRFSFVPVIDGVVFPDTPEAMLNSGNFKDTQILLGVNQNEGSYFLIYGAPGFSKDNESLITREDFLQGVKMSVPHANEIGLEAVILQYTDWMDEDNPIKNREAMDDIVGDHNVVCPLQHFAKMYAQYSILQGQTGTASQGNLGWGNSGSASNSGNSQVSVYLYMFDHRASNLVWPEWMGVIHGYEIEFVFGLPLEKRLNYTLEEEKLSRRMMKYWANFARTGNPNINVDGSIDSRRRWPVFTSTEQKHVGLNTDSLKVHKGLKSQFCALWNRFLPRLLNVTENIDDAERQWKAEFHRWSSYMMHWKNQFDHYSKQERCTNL
T3 sequence (P22303 32-614): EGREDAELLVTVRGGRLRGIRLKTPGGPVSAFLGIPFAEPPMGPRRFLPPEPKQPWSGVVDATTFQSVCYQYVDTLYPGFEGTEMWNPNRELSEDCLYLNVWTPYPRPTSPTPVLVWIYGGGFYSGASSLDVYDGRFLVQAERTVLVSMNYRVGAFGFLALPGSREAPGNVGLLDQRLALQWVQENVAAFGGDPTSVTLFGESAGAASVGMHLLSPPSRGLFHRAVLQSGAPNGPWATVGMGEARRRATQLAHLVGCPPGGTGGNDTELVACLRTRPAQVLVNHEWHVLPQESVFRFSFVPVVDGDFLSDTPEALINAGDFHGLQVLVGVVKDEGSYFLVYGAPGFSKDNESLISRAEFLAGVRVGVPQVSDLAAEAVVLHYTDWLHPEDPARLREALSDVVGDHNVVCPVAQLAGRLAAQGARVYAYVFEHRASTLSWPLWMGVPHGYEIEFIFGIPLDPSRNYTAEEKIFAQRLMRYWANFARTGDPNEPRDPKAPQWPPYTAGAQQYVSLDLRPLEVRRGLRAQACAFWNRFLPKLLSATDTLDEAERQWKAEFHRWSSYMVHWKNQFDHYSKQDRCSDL
T1 sequence (P06276 29-602): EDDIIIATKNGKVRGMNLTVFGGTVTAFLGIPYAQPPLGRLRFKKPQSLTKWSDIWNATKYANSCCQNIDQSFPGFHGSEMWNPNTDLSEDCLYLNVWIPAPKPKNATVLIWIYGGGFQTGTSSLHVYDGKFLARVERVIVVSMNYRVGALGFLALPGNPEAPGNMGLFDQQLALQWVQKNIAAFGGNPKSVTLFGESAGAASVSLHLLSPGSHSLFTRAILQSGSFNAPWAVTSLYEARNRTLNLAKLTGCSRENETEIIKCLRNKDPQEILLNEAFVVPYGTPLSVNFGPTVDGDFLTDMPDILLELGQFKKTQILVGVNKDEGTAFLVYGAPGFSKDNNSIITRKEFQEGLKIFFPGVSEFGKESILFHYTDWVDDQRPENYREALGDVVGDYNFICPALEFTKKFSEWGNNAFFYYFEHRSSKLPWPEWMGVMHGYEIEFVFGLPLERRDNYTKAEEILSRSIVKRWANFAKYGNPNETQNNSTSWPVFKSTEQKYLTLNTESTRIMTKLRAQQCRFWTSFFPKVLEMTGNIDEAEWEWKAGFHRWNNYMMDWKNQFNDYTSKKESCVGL
T2 sequence (P06276 29-602): as above

By IC50 is commonly meant the concentration at which inhibition is half-maximal. Read a high IC50 as weaker potency. Consider `O=C(/C=C/c1ccc([N+](=O)[O-])cc1)NCCCCCCNc1c2c(nc3ccccc13)CCCC2` [Compound 19, (E)-3-(4-nitrophenyl)-N-(6-((1,2,3,4-tetrahydroacridin-9-yl)amino)hexyl)acrylamide], for which the IC50 is 6.3 nM in experiment [1]; 10.2 nM in experiment [2] (huAChE, mean ± SEM); 2.7 ± 0.4 nM in experiment [3] (AChE from electric eel, mean ± SEM of three experiments). In addition, the “type of inhibition on huBuChE” value at huBuChE is “mixed-type inhibition”. The “Selectivity index (SI) = BuChE IC50/AChE IC50, human enzymes” value in experiment [2] (huBuChE IC50 / huAChE IC50) is reported as 0.6. In experiment [3] (eqBuChE IC50 / eeAChE IC50), the “Selectivity index (SI) = BuChE IC50/AChE IC50” value is 2.4.
